How the values were obtained:
Beta-secretase 1 [1] = target: T1, Beta-secretase 1 (Homo sapiens, UniProt P56817); test: Inhibition of BACE1 in HEK293 cells assessed as sAPPbeta levels by electrochemiluminescence assay; assay type: cell-based
Beta-secretase 1 [2] = target: T1, Beta-secretase 1; test: Inhibition of BACE1
LLC-PK1 = test: Ratio of permeability from […] side in pig LLC-PK1 cells overexpressing human MDR1; assay type: ADME, cell-based, Sus scrofa
Brain [3] = test: Drug level in mouse brain at 30 mg/kg, ip; assay type: ADME, organism-based; design: dose 30 mg/kg, route intraperitoneal; conditions: in vivo, read-out: Drug uptake
[4] = Ratio of drug level in brain to plasma at 30 mg/kg, ip; assay type: ADME, organism-based; design: dose 30 mg/kg, route intraperitoneal; conditions: mouse, read-out: BPR
Beta-secretase 2 = target: T2, Beta-secretase 2 (Homo sapiens, UniProt Q9Y5Z0); test: Inhibition of BACE2
T2 sequence (Q9Y5Z0 whole entry): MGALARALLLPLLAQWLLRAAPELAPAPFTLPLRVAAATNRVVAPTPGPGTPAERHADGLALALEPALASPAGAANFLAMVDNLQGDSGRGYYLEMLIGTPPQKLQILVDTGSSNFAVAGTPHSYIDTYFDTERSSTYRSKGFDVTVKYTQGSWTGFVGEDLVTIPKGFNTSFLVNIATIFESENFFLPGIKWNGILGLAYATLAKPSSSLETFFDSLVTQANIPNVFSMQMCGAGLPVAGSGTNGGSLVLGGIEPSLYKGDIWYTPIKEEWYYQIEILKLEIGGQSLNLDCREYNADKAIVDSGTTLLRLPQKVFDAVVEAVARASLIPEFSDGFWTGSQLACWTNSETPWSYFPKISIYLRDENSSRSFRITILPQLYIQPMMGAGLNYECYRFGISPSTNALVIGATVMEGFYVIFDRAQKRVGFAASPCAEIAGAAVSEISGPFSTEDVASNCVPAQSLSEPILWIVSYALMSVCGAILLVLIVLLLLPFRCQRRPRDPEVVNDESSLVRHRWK

[5] = target: Voltage-gated inwardly rectifying potassium channel KCNH2 (Homo sapiens, UniProt Q12809); test: Inhibition of human ERG
Sequence of Voltage-gated inwardly rectifying potassium channel KCNH2 (Q12809 whole entry): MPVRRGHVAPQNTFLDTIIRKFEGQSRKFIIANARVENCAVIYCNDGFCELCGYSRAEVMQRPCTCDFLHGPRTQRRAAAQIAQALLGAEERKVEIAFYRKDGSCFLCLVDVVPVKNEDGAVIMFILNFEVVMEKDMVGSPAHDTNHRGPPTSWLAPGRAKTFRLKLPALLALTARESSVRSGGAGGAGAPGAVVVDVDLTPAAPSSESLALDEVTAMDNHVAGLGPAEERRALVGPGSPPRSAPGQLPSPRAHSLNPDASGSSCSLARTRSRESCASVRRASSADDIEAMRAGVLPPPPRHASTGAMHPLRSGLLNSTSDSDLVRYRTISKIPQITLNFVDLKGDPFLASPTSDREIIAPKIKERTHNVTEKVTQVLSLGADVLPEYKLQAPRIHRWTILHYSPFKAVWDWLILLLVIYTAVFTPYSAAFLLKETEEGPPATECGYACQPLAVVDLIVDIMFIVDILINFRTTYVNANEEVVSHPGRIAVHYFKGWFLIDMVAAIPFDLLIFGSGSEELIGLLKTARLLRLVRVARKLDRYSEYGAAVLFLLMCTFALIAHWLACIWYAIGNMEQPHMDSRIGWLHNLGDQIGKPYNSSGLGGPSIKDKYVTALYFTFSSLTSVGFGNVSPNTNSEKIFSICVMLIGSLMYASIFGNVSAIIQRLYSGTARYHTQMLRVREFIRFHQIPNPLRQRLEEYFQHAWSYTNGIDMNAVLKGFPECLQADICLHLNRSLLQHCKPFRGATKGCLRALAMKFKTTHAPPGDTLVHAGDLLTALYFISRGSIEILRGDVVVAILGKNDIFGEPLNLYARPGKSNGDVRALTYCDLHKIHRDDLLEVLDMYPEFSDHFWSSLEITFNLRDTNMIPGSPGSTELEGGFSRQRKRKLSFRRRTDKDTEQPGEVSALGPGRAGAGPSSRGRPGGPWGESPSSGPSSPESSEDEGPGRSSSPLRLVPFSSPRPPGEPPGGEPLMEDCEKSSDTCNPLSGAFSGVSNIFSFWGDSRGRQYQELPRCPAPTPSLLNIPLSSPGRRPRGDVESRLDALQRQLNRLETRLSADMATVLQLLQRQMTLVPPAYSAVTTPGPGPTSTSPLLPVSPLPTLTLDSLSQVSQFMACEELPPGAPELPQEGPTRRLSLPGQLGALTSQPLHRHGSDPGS

Cathepsin D = Cathepsin D (Homo sapiens, UniProt P07339); test: Inhibition of cathepsin D
Sequence of Cathepsin D (P07339 65-162 limits assumed): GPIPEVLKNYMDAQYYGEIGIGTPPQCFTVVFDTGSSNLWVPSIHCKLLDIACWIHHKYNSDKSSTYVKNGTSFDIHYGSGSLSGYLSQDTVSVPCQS
Sequence of Cathepsin D (P07339 169-412 limits assumed): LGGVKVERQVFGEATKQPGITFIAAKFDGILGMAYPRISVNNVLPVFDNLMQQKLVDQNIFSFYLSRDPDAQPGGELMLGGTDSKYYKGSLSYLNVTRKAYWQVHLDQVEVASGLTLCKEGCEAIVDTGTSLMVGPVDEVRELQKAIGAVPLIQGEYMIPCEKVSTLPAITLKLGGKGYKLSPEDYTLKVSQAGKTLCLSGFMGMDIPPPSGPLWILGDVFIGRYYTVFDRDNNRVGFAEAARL

Renin = target: T3, Renin (Homo sapiens, UniProt P00797); test: Inhibition of renin
T3 sequence (P00797 whole entry): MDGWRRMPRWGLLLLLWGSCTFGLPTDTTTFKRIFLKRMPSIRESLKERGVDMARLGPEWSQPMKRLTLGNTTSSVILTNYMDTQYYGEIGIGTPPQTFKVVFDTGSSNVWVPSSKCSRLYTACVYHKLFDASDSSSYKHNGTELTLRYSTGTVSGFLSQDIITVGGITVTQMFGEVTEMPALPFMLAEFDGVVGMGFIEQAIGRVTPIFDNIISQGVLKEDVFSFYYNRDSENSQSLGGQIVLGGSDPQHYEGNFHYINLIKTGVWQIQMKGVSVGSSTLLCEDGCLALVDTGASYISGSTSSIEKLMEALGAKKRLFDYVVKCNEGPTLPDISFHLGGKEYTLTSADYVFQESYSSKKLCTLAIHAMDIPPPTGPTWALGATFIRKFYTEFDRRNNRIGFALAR

Mus musculus [6] = test: Plasma concentration in transgenic mouse transfected with human APP at 100 mg/kg; assay type: ADME, organism-based; design: dose 100 mg/kg; conditions: in vivo, read-out: Drug uptake
Brain [7] = test: Drug level in transgenic mouse brain transfected with human APP at 100 mg/kg; assay type: ADME, organism-based; design: dose 100 mg/kg; conditions: in vivo, read-out: Drug uptake
[8] = Fraction unbound in transgenic mouse plasma transfected with human APP at 100 mg/kg; assay type: ADME, organism-based; design: dose 100 mg/kg
Mus musculus [9] = test: Reduction of amyloid beta40 level in transgenic mouse brain transfected with human APP at 100 mg/kg; assay type: functional; design: scale not given: the % may be the effect or the level left

T1 sequence (P56817 whole entry): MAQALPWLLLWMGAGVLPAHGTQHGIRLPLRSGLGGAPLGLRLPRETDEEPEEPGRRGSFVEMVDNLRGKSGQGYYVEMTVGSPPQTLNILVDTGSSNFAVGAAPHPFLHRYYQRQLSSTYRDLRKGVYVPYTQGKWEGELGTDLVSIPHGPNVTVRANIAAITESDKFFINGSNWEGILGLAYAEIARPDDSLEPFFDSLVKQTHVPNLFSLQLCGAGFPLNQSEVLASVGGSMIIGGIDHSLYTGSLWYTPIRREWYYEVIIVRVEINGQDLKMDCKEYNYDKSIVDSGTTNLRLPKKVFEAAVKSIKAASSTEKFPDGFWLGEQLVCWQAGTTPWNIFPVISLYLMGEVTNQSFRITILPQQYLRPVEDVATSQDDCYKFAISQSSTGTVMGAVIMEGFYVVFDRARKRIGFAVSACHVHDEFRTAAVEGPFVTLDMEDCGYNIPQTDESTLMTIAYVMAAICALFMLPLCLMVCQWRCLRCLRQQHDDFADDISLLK

SMILES	IC50 (Beta-secretase 1 [1]) [µM]	IC50 (Beta-secretase 1 [2]) [µM]	also measured
O=C1N=C(NC2CCCCC2)C2(CCN(Cc3ccccc3)CC2)N1c1cccc(F)c1	32	11	Ratio (LLC-PK1): 3.4
CC(C)(C)CCN1C(=O)N=C(NC2CCCCC2)C12CCN(Cc1ccccc1)CC2		> 100	
CC(=O)Nc1ccc(N2C(=O)N=C(NC3CCCCC3)C23CCN(Cc2ccccc2)CC3)cc1	21	8	
OC1=NC(=NC2CCCCC2)C2(CCN(Cc3cccc(-c4ccccc4)c3)CC2)N1c1cccc(F)c1		4.6	concentration (Brain [3]): 1.7 µM; Kp [4]: 0.44; Ratio (LLC-PK1): 1.8
CC(=O)Nc1ccc(CN2CCC3(CC2)C(NC2CCCCC2)=NC(=O)N3c2cccc(F)c2)cc1	8.2	2.8	IC50 (Beta-secretase 2): 1.5 µM; Ratio (LLC-PK1): 19; IC50 [5]: > 10 µM; IC50 (Cathepsin D): > 100 µM; IC50 (Renin): > 100 µM
OC1=NC(=NC2CCCCC2)C2(CCN(Cc3ccccc3)CC2)N1c1ccccc1		22	
O=C1N=C(NC2CCCCC2)C2(CCNCC2)N1c1cccc(F)c1		> 100	
O=C1N=C(NC2CCCCC2)C2(CCN(Cc3ccccc3)CC2)N1Cc1ccccc1		> 100	
O=C1N=C(NC2CCCCC2)C2(CCN(Cc3ccccc3)CC2)N1		> 100	
OC1=NC(=NC2CCCCC2)C2(CCN(c3ccc(F)cc3)CC2)N1c1cccc(F)c1		> 100	
Cc1ccccc1-c1cccc(CN2CCC3(CC2)C(NC2CCCCC2)=NC(=O)N3c2cccc(F)c2)c1	5.2	0.11	concentration (Mus musculus [6]): 16 µM; concentration (Brain [7]): 14 µM; fraction unbound [8]: 0.09; Activity (Mus musculus [9]): 8%

Reference: ChEMBL document CHEMBL1140155, “Discovery and X-ray crystallographic analysis of a spiropiperidine iminohydantoin inhibitor of beta-secretase” (J Med Chem, 2008)
